Molecular target: T1, β-glucanase
T1 construct: gene eglA; native secreted enzyme purified from culture supernatant (ammonium sulfate, DEAE-Cellulose, Sephadex G200); 56 kDa on SDS-PAGE; gene not identified; assayed as CMC hydrolysis
Test: residual CMC hydrolysis, DNS reducing sugar
Format: biochemical, Aspergillus niger
Settings: free enzyme, standard assay 0.5% CMC stock, citrate pH 5.0, 40 °C

CC(=O)n1ccnc1 [N-Acetyl imidazole]
IC50 (covalent, tyrosyl reagent): 8.87 mM

[Hg+][c]1ccccc1 [phenylmercuric acetate]
IC50 (covalent, sulfhydryl reagent): 5.47 mM

CC(O)C(C)O (stereo not shown) [2.3-butanediol]
IC50 (arginyl reagent, printed as 2,3-butanediol, probably 2,3-butanedione meant): 4.65 mM

O=C1CCC(=O)N1Br [N-bromosuccinimide]
IC50 (covalent, tryptophanyl reagent): 6.44 mM

Reference: PMC8545931, “Production and immobilization of β-glucanase from Aspergillus niger with its applications in bioethanol production and biocontrol of phytopathogenic fungi” (Scientific Reports, 2021)
